Source: patent US5677325A, “4-imidazolidinone compound” (Adir Et Compagnie, priority 1995, dated 1997)
Several values for one entry are separate records, joined by “and”; a condition that tells them apart may be missing. Equal entries are not always repeated.

Assays:
NMDA channel = assay: Binding of [^3 H]-MK 801 to rat brain membranes (NMDA channel), stimulation or inhibition; set-up: species or system rat (Wistar); settings: for ME (maximum effect) on [^3 H]-MK 801 binding: with respect to a base of 0%, + = stimulation, - = inhibition; for IC50: read-out: IC50, [^3 H]-MK 801 binding, [^3 H]-MK 801 1 nM, 120 minutes at 20° C., antagonists; for activity at glycine B receptor (in words): agonist character
Procedure: (§1) Preparation of the membranes (according to Yoneda et al., J. Neurochem., 55, 1, 237-244, 1990)
(§2) The membranes are prepared and used in the same way for both radioligands. The buffers are prepared with sterile Milli-Q water (Millipore) which is deionized and filtered, just before use, on a nitrocellulose filter (0.45 μm).
(§3) After dissection, the brains from rats (Wistar males, 240-260 g), freed from the cerebellum, are placed in an ice-cold buffer comprising Tris-acetate (1 mM), EGTA (1 mM) and sucrose (320 mM) at pH 7. The brains are milled and then homogenized using a polytron. The suspension is centrifuged for 10 minutes at 1000 g and the supernatent containing the membranes is recovered and recentrifuged for 20 minutes at 35000 g. The pellet, freed from a brown ring, is recovered in a lysis buffer comprising Tris-acetate (1 mM) and EGTA (1 mM) at pH 8. The suspension is then left for 15 minutes at 4° C. and is then centrifuged for 20 minutes at 35000 g. The pellet is recovered in a Tris-acetate (50 mM) buffer at pH 7.4 containing 0.08% Triton and left for 30 minutes at 4° C.
(§4) After two successive centrifugings, the pellet is taken up in Tris-acetate (50 mM) buffer at pH 7.4, divided into aliquots and stored at -80° C. On the day of the experiment, at most 3 weeks after the preparation, the membranes are washed twice with Tris-acetate (50 mM) buffer at pH 7.4.
(§5) Binding experiments (according to Yoneda et al., J. Neurochem., 60, 2, 634-645, 1993)
(§6) The free and bound radioligands are separated on GF/B filters, preimpregnated with PEI (0.1%), using a Brandle filtration device. […] Each filter is rinsed 3 times. The radioactivity is measured using a β-counter (Tricarb 1500, Packard) and expressed in dpm. The curves obtained are analyzed using GraphPad Prism software (non-linear regression).
The opening of the channel of the NMDA receptor complex is modulated positively by the glycinergic site.

glycine B site = target: T1, glycine B site (Rattus norvegicus, UniProt P35439); assay: Binding of [^3 H]-glycine to rat brain membranes (glycine B site); set-up: species or system rat (Wistar); settings: [^3 H]-glycine 10 nM, 20 minutes at 4° C., concentration inhibiting radioligand binding by 50%
T1 construct: from tissue; host or cells: rat brain without cerebellum (Wistar males), Triton-treated membranes
Procedure: as §1, §2, §3, §4, §5, §6

| SMILES | ME (maximum effect) on [^3 H]-MK 801 binding (NMDA channel; at 100 μM) [%] | IC50 (NMDA channel) [µM] | IC50 (glycine B site) | ME (maximum effect) on [^3 H]-MK 801 binding (NMDA channel; at 10 μM) | ME (maximum effect) on [^3 H]-MK 801 binding (NMDA channel; at 10 μM, listed as compound of the invention) [%] | activity at glycine B receptor (in words) (NMDA channel; qualitative, listed as compound of the invention) | activity at glycine B receptor (in words) (NMDA channel; qualitative, listed as compound of the present invention) | effect on binding of [^3 H]-MK 801 (in words) (NMDA channel; rat brain membranes, qualitative) | IC50 (glycine B site; listed as compound of the invention) [µM] | ME (maximum effect) on [^3 H]-MK 801 binding (NMDA channel; at 1 μM) [%] |
| --- | --- | --- | --- | --- | --- | --- | --- | --- | --- | --- |
| N[C@@H]1CCN(O)C1=O [(+)-HA966] | -85 ± 7 | 6.73 | 7.3 µM | – | – | – | – | – | – | – |
| O=C1CNCN1O [Example 1, 3-Hydroxy-4-imidazolidinone] | – | – | 6.81 ± 0.545 µM | +46 ± 3% | 46 | behaves as an agonist | powerful partial agonist | stimulates the binding of [^3 H]-MK 801 | 6.8 | – |
| O=c1[nH]c2cc(Cl)ccc2c(O)c1-c1cccc(Oc2ccccc2)c1 [L 701,324] | – | 0.022 | 0.026 µM and ~0.026 µM | – | – | – | – | – | – | -91 ± 3 |
